Test results from the CheMixHub viscosity set.
“And” between values parts separate entries of the source, which are not always exact repeats. Equal values may be shown once. ± gives the uncertainty stated by the source.

Assays:
[1] = xn = mol fraction of the nth substance listed

N#CCCCCC#N
Settings	viscosity [mPa·s]
303.15 K, 101.33 kPa	4.905 ± 0.027

OC1CCCC1
100 kPa
Settings	viscosity
293.15 K	12.9 ± 3 mPa·s
298.15 K	10.41 ± 3 mPa·s
303.15 K	8.2 ± 0.17 mPa·s and 8.088 ± 3 mPa·s
308.15 K	6.85 ± 0.17 mPa·s and 6.528 ± 3 mPa·s
318.15 K	4.742 mPa·s
318.16 K	4.87 ± 0.16 mPa·s

OCCCCCO
101 kPa
Settings	viscosity [mPa·s]
313.15 K	45.63 ± 2.6
318.15 K	36.87 ± 2.1
323.15 K	29.8 ± 1.7

C=CC(=O)OCC + c1ccccc1
viscosity [mPa·s], [1], 101 kPa
Settings	x2 = 0.1283	x2 = 0.2137	x2 = 0.3255	x2 = 0.4115	x2 = 0.5361	x2 = 0.6109	x2 = 0.7033	x2 = 0.8074	x2 = 0.9025
298.15 K	0.531 ± 0.008	0.533 ± 0.008	0.537 ± 0.008	0.541 ± 0.008	0.55 ± 0.008	0.558 ± 0.008	0.568 ± 0.008	0.579 ± 0.009	0.591 ± 0.009
303.15 K	0.499 ± 0.008	0.5 ± 0.008	0.501 ± 0.008	0.502 ± 0.008	0.509 ± 0.008	0.516 ± 0.008	0.524 ± 0.008	0.535 ± 0.008	0.548 ± 0.008
308.15 K	0.461 ± 0.007	0.46 ± 0.007	0.461 ± 0.007	0.462 ± 0.007	0.466 ± 0.007	0.472 ± 0.008	0.481 ± 0.008	0.495 ± 0.008	0.508 ± 0.008
313.15 K	0.412 ± 0.007	0.41 ± 0.007	0.411 ± 0.007	0.412 ± 0.007	0.415 ± 0.007	0.42 ± 0.007	0.431 ± 0.007	0.444 ± 0.007	0.458 ± 0.008

CCc1ccccc1 + c1ccccc1
[1]
Settings	viscosity
293.15 K, 101.33 kPa, x2 = 0.2323	0.657 ± 0.0058 mPa·s
293.15 K, 101.33 kPa, x2 = 0.4707	0.646 ± 0.0057 mPa·s
293.15 K, 101.33 kPa, x2 = 0.5427	0.644 ± 0.0057 mPa·s
293.15 K, 101.33 kPa, x2 = 0.7124	0.635 ± 0.0057 mPa·s
293.15 K, 101.33 kPa, x2 = 0.8608	0.64 ± 0.0057 mPa·s
298.15 K, 101.3 kPa, x2 = 0.0268	0.632 ± 0.0054 mPa·s
298.15 K, 101.3 kPa, x2 = 0.1358	0.6249 ± 0.0053 mPa·s
298.15 K, 101.3 kPa, x2 = 0.2562	0.6202 ± 0.0053 mPa·s
298.15 K, 101.3 kPa, x2 = 0.3579	0.6177 ± 0.0053 mPa·s
298.15 K, 101.3 kPa, x2 = 0.4426	0.6157 ± 0.0053 mPa·s
298.15 K, 101.3 kPa, x2 = 0.5472	0.6134 ± 0.0052 mPa·s
298.15 K, 101.3 kPa, x2 = 0.6302	0.6115 ± 0.0052 mPa·s
298.15 K, 101.3 kPa, x2 = 0.7423	0.608 ± 0.0052 mPa·s
298.15 K, 101.3 kPa, x2 = 0.8318	0.6056 ± 0.0052 mPa·s
298.15 K, 101.3 kPa, x2 = 0.9404	0.6027 ± 0.0052 mPa·s
298.15 K, 101.33 kPa, x1 = 0.1	0.599 ± 0.016 mPa·s
298.15 K, 101.33 kPa, x1 = 0.2	0.601 ± 0.006 mPa·s and 0.601 ± 0.016 mPa·s
298.15 K, 101.33 kPa, x1 = 0.4	0.603 ± 0.016 mPa·s
298.15 K, 101.33 kPa, x1 = 0.5	0.607 ± 0.0061 mPa·s and 0.607 ± 0.016 mPa·s
298.15 K, 101.33 kPa, x1 = 0.6	0.608 ± 0.016 mPa·s
298.15 K, 101.33 kPa, x1 = 0.8	0.616 ± 0.017 mPa·s
298.15 K, 101.33 kPa, x2 = 0.145	0.6185 ± 0.0062 mPa·s
298.15 K, 101.33 kPa, x2 = 0.2147	0.6165 ± 0.0062 mPa·s
298.15 K, 101.33 kPa, x2 = 0.2942	0.6156 ± 0.0062 mPa·s
298.15 K, 101.33 kPa, x2 = 0.4187	0.6078 ± 0.0061 mPa·s
298.15 K, 101.33 kPa, x2 = 0.4944	0.6057 ± 0.0061 mPa·s
298.15 K, 101.33 kPa, x2 = 0.5926	0.6038 ± 0.006 mPa·s
298.15 K, 101.33 kPa, x2 = 0.6887	0.6029 ± 0.006 mPa·s
298.15 K, 101.33 kPa, x2 = 0.7786	0.6012 ± 0.006 mPa·s
298.15 K, 101.33 kPa, x2 = 0.8938	0.6006 ± 0.006 mPa·s
298.15 K, 101.33 kPa, x2 = 0.9568	0.6008 ± 0.006 mPa·s
303.15 K, 101.3 kPa, x2 = 0.1358	0.5881 ± 0.0051 mPa·s
303.15 K, 101.3 kPa, x2 = 0.2562	0.5827 ± 0.005 mPa·s
303.15 K, 101.3 kPa, x2 = 0.3579	0.5777 ± 0.005 mPa·s
303.15 K, 101.3 kPa, x2 = 0.4426	0.5744 ± 0.005 mPa·s
303.15 K, 101.3 kPa, x2 = 0.5472	0.571 ± 0.005 mPa·s
303.15 K, 101.3 kPa, x2 = 0.6302	0.5678 ± 0.005 mPa·s
303.15 K, 101.3 kPa, x2 = 0.7423	0.5637 ± 0.0049 mPa·s
303.15 K, 101.3 kPa, x2 = 0.8318	0.5608 ± 0.0049 mPa·s
303.15 K, 101.3 kPa, x2 = 0.9404	0.5574 ± 0.0049 mPa·s
303.15 K, 101.33 kPa, x2 = 0.2323	0.583 ± 0.0053 mPa·s
303.15 K, 101.33 kPa, x2 = 0.4707	0.57 ± 0.0052 mPa·s
303.15 K, 101.33 kPa, x2 = 0.5427	0.568 ± 0.0052 mPa·s
303.15 K, 101.33 kPa, x2 = 0.7124	0.56 ± 0.0051 mPa·s
303.15 K, 101.33 kPa, x2 = 0.8608	0.561 ± 0.0051 mPa·s
308.15 K, 101.33 kPa, x1 = 0.1	0.528 ± 0.014 mPa·s
308.15 K, 101.33 kPa, x1 = 0.2	0.53 ± 0.014 mPa·s
308.15 K, 101.33 kPa, x1 = 0.4	0.535 ± 0.014 mPa·s
308.15 K, 101.33 kPa, x1 = 0.6	0.542 ± 0.015 mPa·s
308.15 K, 101.33 kPa, x1 = 0.8	0.551 ± 0.015 mPa·s
313.15 K, 101.33 kPa, x2 = 0.2323	0.521 ± 0.0048 mPa·s
313.15 K, 101.33 kPa, x2 = 0.5427	0.506 ± 0.0047 mPa·s
313.15 K, 101.33 kPa, x2 = 0.7124	0.498 ± 0.0046 mPa·s
313.15 K, 101.33 kPa, x2 = 0.8608	0.493 ± 0.0046 mPa·s
318.15 K, 101.33 kPa, x1 = 0.1	0.468 ± 0.013 mPa·s
318.15 K, 101.33 kPa, x1 = 0.2	0.471 ± 0.013 mPa·s
318.15 K, 101.33 kPa, x1 = 0.4	0.477 ± 0.013 mPa·s
318.15 K, 101.33 kPa, x1 = 0.5	0.481 ± 0.013 mPa·s
318.15 K, 101.33 kPa, x1 = 0.6	0.484 ± 0.013 mPa·s
318.15 K, 101.33 kPa, x1 = 0.8	0.492 ± 0.013 mPa·s
318.15 K, 101.33 kPa, x2 = 0.145	0.4939 ± 0.0049 mPa·s
318.15 K, 101.33 kPa, x2 = 0.2147	0.4912 ± 0.0049 mPa·s
318.15 K, 101.33 kPa, x2 = 0.2942	0.4912 ± 0.0049 mPa·s
318.15 K, 101.33 kPa, x2 = 0.4187	0.4812 ± 0.0048 mPa·s
318.15 K, 101.33 kPa, x2 = 0.4944	0.4774 ± 0.0048 mPa·s
318.15 K, 101.33 kPa, x2 = 0.5926	0.4737 ± 0.0047 mPa·s
318.15 K, 101.33 kPa, x2 = 0.6887	0.469 ± 0.0047 mPa·s
318.15 K, 101.33 kPa, x2 = 0.7786	0.4657 ± 0.0047 mPa·s
318.15 K, 101.33 kPa, x2 = 0.8938	0.4621 ± 0.0046 mPa·s
318.15 K, 101.33 kPa, x2 = 0.9568	0.4607 ± 0.0046 mPa·s
323.15 K, 101.33 kPa, x1 = 0.1	0.44 ± 0.012 mPa·s
323.15 K, 101.33 kPa, x1 = 0.2	0.443 ± 0.0044 mPa·s and 0.443 ± 0.012 mPa·s
323.15 K, 101.33 kPa, x1 = 0.4	0.449 ± 0.012 mPa·s
323.15 K, 101.33 kPa, x1 = 0.5	0.453 ± 0.0045 mPa·s and 0.453 ± 0.012 mPa·s
323.15 K, 101.33 kPa, x1 = 0.6	0.456 ± 0.012 mPa·s
323.15 K, 101.33 kPa, x1 = 0.8	0.466 ± 0.013 mPa·s
323.15 K, 101.33 kPa, x2 = 0.2323	0.469 ± 0.0044 mPa·s
323.15 K, 101.33 kPa, x2 = 0.4707	0.456 ± 0.0043 mPa·s
323.15 K, 101.33 kPa, x2 = 0.5427	0.453 ± 0.0043 mPa·s
323.15 K, 101.33 kPa, x2 = 0.7124	0.443 ± 0.0042 mPa·s
323.15 K, 101.33 kPa, x2 = 0.8608	0.44 ± 0.0042 mPa·s

Clc1cccc2ccccc12 + c1ccccc1
viscosity [mPa·s], [1], 101.33 kPa
Settings	x1 = 0.0989	x1 = 0.2022	x1 = 0.3275	x1 = 0.3981	x1 = 0.5035	x1 = 0.5982	x1 = 0.7022	x1 = 0.7973	x1 = 0.8976
298.15 K	0.655 ± 0.018	0.792 ± 0.022	0.96 ± 0.028	1.078 ± 0.033	1.294 ± 0.041	1.475 ± 0.05	1.731 ± 0.063	2.022 ± 0.079	2.38 ± 0.099
303.15 K	0.609 ± 0.017	0.727 ± 0.02	0.903 ± 0.026	0.994 ± 0.03	1.188 ± 0.038	1.349 ± 0.046	1.586 ± 0.058	1.833 ± 0.072	2.126 ± 0.089
308.15 K	0.571 ± 0.016	0.679 ± 0.019	0.843 ± 0.025	0.922 ± 0.028	1.098 ± 0.036	1.242 ± 0.043	1.452 ± 0.053	1.669 ± 0.065	1.928 ± 0.081
